Experimental findings from ChEMBL document CHEMBL1126186 (J Med Chem, 1992) are described below.

Molecules are shown by their SMILES.

In this assay the target is Glutamate receptor ionotropic, NMDA 1 (Rattus norvegicus, UniProt P35439). Briefly: Compound was evaluated for its ability to displace [3H]TCP from PCP N-methyl-D-aspartate glutamate receptor in rat brain. It is filed as tissue-based.
Regarding `c1ccc([C@]2(N3CCCCC3)C[C@H]3C[C@H]3C2)cc1`, the Ki – broadly, the dissociation constant of the complex between target and ligand, obtained from inhibition or displacement – amounted to 644 nM. This lies in the sub-micromolar range.
The molecule `c1ccc([C@@]2(N3CCCCC3)C[C@H]3C[C@H]3C2)cc1` came in with a Ki of 711 nM.
Then `c1ccc([C@]2(N3CCCCC3)CC[C@@H]3C[C@@H]32)cc1`, with 29000 nM.
Then `c1ccc([C@@]2(N3CCCCC3)CC[C@H]3C[C@H]32)cc1`, with 8220 nM; and `c1ccc([C@]2(N3CCCCC3)CC[C@H]3C[C@H]32)cc1` (racemic), with 582 nM.
Next, `c1ccc(C2(N3CCCCC3)CCCCC2)cc1` [PHENCYCLIDINE]: 64.5 nM.
